{"source": "patent US8580794B2", "about": "(AbbVie Inc., priority 2009, dated 2013)", "data": [{"molecular_target": "GST-Bc1-2 (Homo sapiens, UniProt P10415)", "sequence (P10415 whole entry)": "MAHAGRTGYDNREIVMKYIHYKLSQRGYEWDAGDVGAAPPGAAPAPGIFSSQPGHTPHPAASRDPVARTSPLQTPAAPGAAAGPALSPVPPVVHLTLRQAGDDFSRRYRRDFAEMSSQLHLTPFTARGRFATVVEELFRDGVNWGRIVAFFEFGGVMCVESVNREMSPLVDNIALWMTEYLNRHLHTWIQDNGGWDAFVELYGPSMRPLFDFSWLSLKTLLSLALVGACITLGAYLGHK", "test": "Time Resolved-Fluorescence Resonance Energy Transfer (TR-FRET) Bcl-2 binding assay with F-Bak peptide probe", "settings": "GST-Bcl-2 1 nM, F-Bak probe 100 nM, Tb-anti-GST 1 nM; '<' = below limit of detection; read-out: TR-FRET Bcl-2 Binding Ki", "units": {"Ki": "pM"}, "experimental": "The samples are then mixed on a shaker for 1 minute and incubated for an additional 3 hours at room temperature. For each assay, the probe/antibody and protein/probe/antibody were included on each assay plate as negative and positive controls, respectively.\nThe samples were then mixed on a shaker for 1 minute and incubated for an additional 3 hours at room temperature. For each assay, the probe/antibody and protein/probe/antibody were included on each assay plate as negative and positive controls, respectively.", "values": [{"compound": "CC1(C)CCC(CN2CCN(c3ccc(C(=O)NS(=O)(=O)c4ccc(OCC5(F)CCN(C(=O)OC(C)(C)C)CC5)c([N+](=O)[O-])c4)c(Oc4cnc5[nH]ccc5c4)c3)CC2)=C(c2ccc(Cl)cc2)C1", "note": "[Example 126, tert-butyl 4-{[4-({[4-(4-{[2-(4-chlorophenyl)-4,4-dimethylcyclohex-1-en-1-yl]methyl}piperazin-1-yl)-2-(1H-pyrrolo[2,3-b]pyridin-5-yloxy)benzoyl]amino}sulfonyl)-2-nitrophenoxy]methyl}-4-fluoropiperidine-1-carboxylate]", "Ki": "< 10"}, {"compound": "CC1(C)CCC(CN2CCN(c3ccc(C(=O)NS(=O)(=O)c4ccc(OCC5(F)CCNCC5)c([N+](=O)[O-])c4)c(Oc4cnc5[nH]ccc5c4)c3)CC2)=C(c2ccc(Cl)cc2)C1", "note": "[Example 127, 4-(4-{[2-(4-chlorophenyl)-4,4-dimethylcyclohex-1-en-1-yl]methyl}piperazin-1-yl)-N-({4-[(4-fluoropiperidin-4-yl)methoxy]-3-nitrophenyl}sulfonyl)-2-(1H-pyrrolo[2,3-b]pyridin-5-yloxy)benzamide]", "Ki": "< 10"}, {"compound": "CC1(C)CCC(CN2CCN(c3ccc(C(=O)NS(=O)(=O)c4ccc(N[C@H]5CC[C@H](N6CCN(C7CCOCC7)CC6)CC5)c([N+](=O)[O-])c4)c(Oc4cnc5[nH]ccc5c4)c3)CC2)=C(c2ccc(Cl)cc2)C1", "note": "[Example 128, Trans-4-(4-{[2-(4-chlorophenyl)-4,4-dimethylcyclohex-1-en-1-yl]methyl}piperazin-1-yl)-N-[(3-nitro-4-{[4-(4-tetrahydro-2H-pyran-4-ylpiperazin-1-yl)cyclohexyl]amino}phenyl)sulfonyl]-2-(1H-pyrrolo[2,3-b]pyridin-5-yloxy)benzamide]", "Ki": "< 10"}, {"compound": "CC1(C)CCC(CN2CCN(c3ccc(C(=O)NS(=O)(=O)c4ccc(OCC5CCN(C(CF)CF)CC5)c([N+](=O)[O-])c4)c(Oc4cnc5[nH]ccc5c4)c3)CC2)=C(c2ccc(Cl)cc2)C1", "note": "[Example 129, 4-(4-{[2-(4-chlorophenyl)-4,4-dimethylcyclohex-1-en-1-yl]methyl}piperazin-1-yl)-N-{[4-({1-[2-fluoro-1-(fluoromethyl)ethyl]piperidin-4-yl}methoxy)-3-nitrophenyl]sulfonyl}-2-(1H-pyrrolo[2,3-b]pyridin-5-yloxy)benzamide]", "Ki": 2}, {"compound": "CC1(C)CCC(CN2CCN(c3ccc(C(=O)NS(=O)(=O)c4ccc(N[C@@H]5CCN(C6CCOCC6)C5)c([N+](=O)[O-])c4)c(Oc4cnc5[nH]ccc5c4)c3)CC2)=C(c2ccc(Cl)cc2)C1", "note": "[Example 130, 4-(4-{[2-(4-chlorophenyl)-4,4-dimethylcyclohex-1-en-1-yl]methyl}piperazin-1-yl)-N-[(3-nitro-4-{[(3R)-1-tetrahydro-2H-pyran-4-ylpyrrolidin-3-yl]amino}phenyl)sulfonyl]-2-(1H-pyrrolo[2,3-b]pyridin-5-yloxy)benzamide]", "Ki": "< 10"}, {"compound": "CC1(C)CCC(CN2CCN(c3ccc(C(=O)NS(=O)(=O)c4ccc(N[C@@H]5CCN(C6CCOC(C)(C)C6)C5)c([N+](=O)[O-])c4)c(Oc4cnc5[nH]ccc5c4)c3)CC2)=C(c2ccc(Cl)cc2)C1", "note": "(stereo partly drawn) [Example 131, 4-(4-{[2-(4-chlorophenyl)-4,4-dimethylcyclohex-1-en-1-yl]methyl}piperazin-1-yl)-N-[(4-{[(3R)-1-(2,2-dimethyltetrahydro-2H-pyran-4-yl)pyrrolidin-3-yl]amino}-3-nitrophenyl)sulfonyl]-2-(1H-pyrrolo[2,3-b]pyridin-5-yloxy)benzamide]", "Ki": "< 10"}, {"compound": "CC1(C)CCC(CN2CCN(c3ccc(C(=O)NS(=O)(=O)c4ccc(N[C@H]5CCN(C6CCOCC6)C5)c([N+](=O)[O-])c4)c(Oc4cnc5[nH]ccc5c4)c3)CC2)=C(c2ccc(Cl)cc2)C1", "note": "[Example 132, 4-(4-{[2-(4-chlorophenyl)-4,4-dimethylcyclohex-1-en-1-yl]methyl}piperazin-1-yl)-N-[(3-nitro-4-{[(3S)-1-tetrahydro-2H-pyran-4-ylpyrrolidin-3-yl]amino}phenyl)sulfonyl]-2-(1H-pyrrolo[2,3-b]pyridin-5-yloxy)benzamide]", "Ki": "< 10"}]}]}
